What was measured:
Assay type in all cases: in vivo
[1] = tested on: Echinochloa crus-galli var. formosensis; assay: Test Example 1: herbicidal effect test by soil application in paddy rice; settings: Echinochloa crus-galli, soil, 336 h; 120 g active ingredient per 10 ares; applied immediately after sowing, flooded pots; 14 days after application; read-out: weed inhibition rate
In short: (§1)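 Flooded-pot paddy assay: sow at 0–1 cm, flood to about 3 cm, then apply diluted emulsifiable concentrate by dropper, 120 g a.i. per 10 ares; greenhouse-grown.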

[2] = tested on: Scirpus juncoides; assay: as above; settings: Schoenoplectiella juncoides, soil, 336 h; 120 g active ingredient per 10 ares; applied immediately after sowing, flooded pots; 14 days after application; read-out: weed inhibition rate
In short: as §1

[3] = tested on: Echinochloa crus-galli var. formosensis; assay: Test Example 5: herbicidal effect test by soil application in paddy rice (low dose); settings: Echinochloa crus-galli, soil, 336 h; 7.5 g per 10 ares; applied immediately after sowing, flooded pots; 14 days after application; read-out: weed inhibition rate
In short: (§2)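 Flooded-paddy soil application at low dose (7.5 g a.i. per 10 ares), given by dropper as diluted emulsifiable concentrate directly after sowing weeds 0–1 cm deep. Effect evaluated after 14 days in duplicate.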

[4] = tested on: Echinochloa crus-galli var. formosensis; assay: Test Example 6: herbicidal effect test by application during growth period of paddy rice (low dose); settings: Echinochloa crus-galli; 7.5 g per 10 ares; applied seven days after sowing, flooded pots; 14 days after application; read-out: weed inhibition rate
In short: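 Formulated compound, diluted in water, was dropped onto flooded pots seven days post-sowing at 7.5 g a.i. per 10 ares. Seeds had been sown 0-1 cm deep in puddled paddy soil under ~3 cm water in a glass greenhouse. Inhibition (%) assessed at 14 days; duplicate pots.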

[5] = tested on: Echinochloa crus-galli; assay: Test Example 7: herbicidal effect test by soil application in upland field (low dose); settings: Echinochloa crus-galli, 7.5 g per 10 ares, sprayed one day after sowing, 14 days after application, read-out: weed inhibition rate
In short: (§3)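 Upland soil (alluvial loam) pots, seeds mixed into top 1 cm layer → EC formulation diluted with water, sprayed onto soil 1 d post-sowing, 100 L/10 a → 7.5 g a.i./10 a → inhibition (%) scored at 14 d, n=2.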

[6] = tested on: Digitaria ciliaris; assay: as above; settings: Digitaria ciliaris, 7.5 g per 10 ares, sprayed one day after sowing, 14 days after application, read-out: weed inhibition rate
In short: as §3

[7] = tested on: Scirpus juncoides; assay: Test Example 5: herbicidal effect test by soil application in paddy rice (low dose); settings: Schoenoplectiella juncoides, 336 h, 7.5 g per 10 ares, applied immediately after sowing, flooded pots, 14 days after application, read-out: weed inhibition rate
In short: as §2

[8] = tested on: Monochoria vaginalis; assay: as above; settings: Pontederia vaginalis, 336 h, 7.5 g per 10 ares, applied immediately after sowing, flooded pots, 14 days after application, read-out: weed inhibition rate
In short: as §2

[9] = tested on: Digitaria ciliaris; assay: Test Example 4: herbicidal effect test by stem and leaf treatment in upland field; settings: Digitaria ciliaris; 120 g per 10 ares; sprayed seven days after sowing, upland soil; 14 days after application; read-out: weed inhibition rate
[10] = tested on: Echinochloa crus-galli; assay: as above; settings: Echinochloa crus-galli; 120 g per 10 ares; sprayed seven days after sowing, upland soil; 14 days after application; read-out: weed inhibition rate

C=CCO[C@@H]1C[C@]2(C)O[C@@]1(C(C)C)C[C@H]2OCc1ccccc1F [1-930, (1S,2R,4R,5R)-2-[(2-fluorophenyl)methoxy]-1-methyl-4-isopropyl-5-prop-2-enoxy-7-oxabicyclo[2.2.1]heptane]
≥ 80%: pest or weed control at 1200 g/ha [1] | pest or weed control at 1200 g/ha [2] | inhibition at 75 g/ha [3] | inhibition at 75 g/ha [4] | inhibition at 75 g/ha [5] | inhibition at 75 g/ha [6] | inhibition at 75 g/ha [7] | inhibition at 75 g/ha [8] | inhibition at 1200 g/ha [9] | inhibition at 1200 g/ha [10]

CC(C)[C@]12C[C@@H](OCc3ccc(F)cc3)[C@](C)(C[C@@H]1Br)O2 [1-691, (1S,2R,4R,5S)-5-bromo-2-[(4-fluorophenyl)methoxy]-1-methyl-4-isopropyl-7-oxabicyclo[2.2.1]heptane]
≥ 80%: pest or weed control at 1200 g/ha [1] | pest or weed control at 1200 g/ha [2] | inhibition at 75 g/ha [3] | inhibition at 75 g/ha [4] | inhibition at 75 g/ha [5] | inhibition at 75 g/ha [6] | inhibition at 75 g/ha [7] | inhibition at 75 g/ha [8] | inhibition at 1200 g/ha [9] | inhibition at 1200 g/ha [10]

CC(C)[C@]12C[C@@H](OCc3c(F)cccc3Cl)[C@](C)(CC1=O)O2 [2-28, (1R,4S,5R)-5-((2-chloro-6-fluorobenzyl)oxy)-1-isopropyl-4-methyl-7-oxabicyclo[2.2.1]heptan-2-one]
≥ 80%: pest or weed control at 1200 g/ha [1] | pest or weed control at 1200 g/ha [2] | inhibition at 75 g/ha [3] | inhibition at 75 g/ha [4] | inhibition at 75 g/ha [5] | inhibition at 75 g/ha [6] | inhibition at 75 g/ha [7] | inhibition at 75 g/ha [8] | inhibition at 1200 g/ha [9] | inhibition at 1200 g/ha [10]

CC(C)[C@]12C[C@@H](OCc3ccccc3F)[C@](C)(CC1C)O2 (stereo partly drawn) [1-92, (1S,2R,4R)-2-((2-fluorobenzyl)oxy)-4-isopropyl-1,5-dimethyl-7-oxabicyclo[2.2.1]heptane]
≥ 80%: pest or weed control at 1200 g/ha [1] | pest or weed control at 1200 g/ha [2] | inhibition at 75 g/ha [3] | inhibition at 75 g/ha [4] | inhibition at 75 g/ha [5] | inhibition at 75 g/ha [6] | inhibition at 75 g/ha [7] | inhibition at 75 g/ha [8] | inhibition at 1200 g/ha [9] | inhibition at 1200 g/ha [10]

CC(C)[C@]12C=C[C@](C)(O1)[C@H](OCc1c(F)cccc1F)C2 [3-7, (1R,4S,5R)-5-[(2,6-difluorophenyl)methoxy]-4-methyl-1-isopropyl-7-oxabicyclo[2.2.1]hept-2-ene]
≥ 80%: pest or weed control at 1200 g/ha [1] | pest or weed control at 1200 g/ha [2] | inhibition at 75 g/ha [3] | inhibition at 75 g/ha [4] | inhibition at 75 g/ha [5] | inhibition at 75 g/ha [6] | inhibition at 75 g/ha [7] | inhibition at 75 g/ha [8] | inhibition at 1200 g/ha [9] | inhibition at 1200 g/ha [10]

Cc1ccccc1CO[C@@H]1C[C@]2(C(C)C)O[C@@]1(C)CC2C (stereo partly drawn) [1-83, (1S,2R,4R)-4-isopropyl-1,5-dimethyl-2-((2-methylbenzyl)oxy)-7-oxabicyclo[2.2.1]heptane]
≥ 80%: pest or weed control at 1200 g/ha [1] | pest or weed control at 1200 g/ha [2] | inhibition at 75 g/ha [3] | inhibition at 75 g/ha [4] | inhibition at 75 g/ha [5] | inhibition at 75 g/ha [6] | inhibition at 75 g/ha [7] | inhibition at 75 g/ha [8] | inhibition at 1200 g/ha [9] | inhibition at 1200 g/ha [10]

CCO[C@H]1C[C@]2(C)O[C@@]1(C(C)C)C[C@H]2OCc1ccccc1F [1-183, (1S,2R,4R,5S)-5-ethoxy-2-[(2-fluorophenyl)methoxy]-1-methyl-4-isopropyl-7-oxabicyclo[2.2.1]heptane]
≥ 80%: pest or weed control at 1200 g/ha [1] | pest or weed control at 1200 g/ha [2] | inhibition at 75 g/ha [3] | inhibition at 75 g/ha [4] | inhibition at 75 g/ha [5] | inhibition at 75 g/ha [6] | inhibition at 75 g/ha [7] | inhibition at 75 g/ha [8] | inhibition at 1200 g/ha [9] | inhibition at 1200 g/ha [10]

CC(C)[C@]12C=C[C@](C)(O1)[C@H](OCc1ccccc1)C2 [3-1, (1R,4S,5R)-4-methyl-5-phenylmethoxy-1-isopropyl-7-oxabicyclo[2.2.1]hept-2-ene]
≥ 80%: pest or weed control at 1200 g/ha [1] | pest or weed control at 1200 g/ha [2] | inhibition at 75 g/ha [3] | inhibition at 75 g/ha [4] | inhibition at 75 g/ha [5] | inhibition at 75 g/ha [6] | inhibition at 75 g/ha [7] | inhibition at 75 g/ha [8] | inhibition at 1200 g/ha [9] | inhibition at 1200 g/ha [10]

CC(C)[C@]12C[C@@H](OCc3c(F)cccc3F)[C@](C)(C[C@@H]1Br)O2 [1-21, (1S,2R,4R,5S)-5-bromo-2-[(2,6-difluorophenyl)methoxy]-1-methyl-4-isopropyl-7-oxabicyclo[2.2.1]heptane]
≥ 80%: pest or weed control at 1200 g/ha [1] | pest or weed control at 1200 g/ha [2] | inhibition at 75 g/ha [3] | inhibition at 75 g/ha [4] | inhibition at 75 g/ha [5] | inhibition at 75 g/ha [6] | inhibition at 75 g/ha [7] | inhibition at 75 g/ha [8] | inhibition at 1200 g/ha [9] | inhibition at 1200 g/ha [10]

CC(C)[C@]12C[C@@H](OCc3cccc(F)c3F)[C@](C)(CC1=O)O2 [2-14, (1R,4S,5R)-5-((2,3-difluorobenzyl)oxy)-1-isopropyl-4-methyl-7-oxabicyclo[2.2.1]heptan-2-one]
≥ 80%: pest or weed control at 1200 g/ha [1] | pest or weed control at 1200 g/ha [2] | inhibition at 75 g/ha [3] | inhibition at 75 g/ha [4] | inhibition at 75 g/ha [5] | inhibition at 75 g/ha [6] | inhibition at 75 g/ha [7] | inhibition at 75 g/ha [8] | inhibition at 1200 g/ha [9] | inhibition at 1200 g/ha [10]

C#CCO[C@@H]1C[C@]2(C)O[C@@]1(C(C)C)C[C@H]2OCc1ccccc1F [1-931, (1S,2R,4R,5R)-2-[(2-fluorophenyl)methoxy]-1-methyl-4-isopropyl-5-prop-2-ynoxy-7-oxabicyclo[2.2.1]heptane]
≥ 80%: pest or weed control at 1200 g/ha [1] | pest or weed control at 1200 g/ha [2] | inhibition at 75 g/ha [3] | inhibition at 75 g/ha [4] | inhibition at 75 g/ha [5] | inhibition at 75 g/ha [6] | inhibition at 75 g/ha [7] | inhibition at 75 g/ha [8] | inhibition at 1200 g/ha [9] | inhibition at 1200 g/ha [10]

CC(C)[C@]12C[C@@H](OCc3ccccc3F)[C@](C)(CC1OCC1CC1)O2 (mixture of isomers) [1-921, (1S,2R,4R,SR)-5-(cyclopropylmethoxy)-2-[(2-fluorophenyl)methoxy]-1-methyl-4-isopropyl-7-oxabicyclo[2.2.1]heptane]
≥ 80%: pest or weed control at 1200 g/ha [1] | pest or weed control at 1200 g/ha [2] | inhibition at 75 g/ha [3] | inhibition at 75 g/ha [4] | inhibition at 75 g/ha [5] | inhibition at 75 g/ha [6] | inhibition at 75 g/ha [7] | inhibition at 75 g/ha [8] | inhibition at 1200 g/ha [9] | inhibition at 1200 g/ha [10]

CC(C)C12CC(OCc3ccccc3F)C(C)(CC1Br)O2 (centres unmarked) [1-1355, 5-bromo-2-[(2-fluorophenyl)methoxy]-1-methyl-4-isopropyl-7-oxabicyclo[2.2.1]heptane]
≥ 80%: pest or weed control at 1200 g/ha [1] | pest or weed control at 1200 g/ha [2] | inhibition at 75 g/ha [3] | inhibition at 75 g/ha [4] | inhibition at 75 g/ha [5] | inhibition at 75 g/ha [6] | inhibition at 75 g/ha [7] | inhibition at 75 g/ha [8] | inhibition at 1200 g/ha [9] | inhibition at 1200 g/ha [10]

CC(C)[C@]12C[C@@H](OCc3ccccc3F)[C@](C)(C[C@@H]1F)O2 [1-5, (1R,2S,4S,5R)-2-fluoro-5-((2-fluorobenzyl)oxy)-1-isopropyl-4-methyl-7-oxabicyclo[2.2.1]heptane]
≥ 80%: pest or weed control at 1200 g/ha [1] | pest or weed control at 1200 g/ha [2] | inhibition at 75 g/ha [3] | inhibition at 75 g/ha [4] | inhibition at 75 g/ha [5] | inhibition at 75 g/ha [6] | inhibition at 75 g/ha [7] | inhibition at 75 g/ha [8] | inhibition at 1200 g/ha [9] | inhibition at 1200 g/ha [10]

From EP4707280A1, “1,4-CINEOLE DERIVATIVE AND INTERMEDIATE THEREOF, HERBICIDE CONTAINING SAID DERIVATIVE AS ACTIVE INGREDIENT, METHOD FOR USING HERBICIDE, AND METHOD FOR PREPARING AGROCHEMICAL COMPOSITION” (HOKKO CHEMICAL INDUSTRY CO., LTD., priority 2023, dated 2024)
